From patent US20220409593A1 (ARKUDA THERAPEUTICS, priority 2019, published 2022)

Tested on: secreted mouse PGRN
Assay: progranulin induction cellular assay (PGRN assay, ELISA-based readout)
Conditions: progranulin secreted into cell culture medium, cells named in method: mouse primary microglia, primary cortical neurons, BV-2
Method: Cellular Assays: To measure the efficacy of compounds, a progranulin induction cellular assay in mouse primary microglia (pMG), primary cortical neurons, and BV-2 cell lines is used. BV-2 cells are split the day before plating into a 96well plate format at approximately 80%. Cells should be plated the day before and allowed for 1 hour attachment period and for 16 hour incubation. Levels of progranulin secreted into the cell culture medium or retained in the cell lysate can be quantified using an ELISA-based readout and measurement of secreted mouse PGRN in the medium was assessed by the methodology published by Ghidoni et al. 2012. Standard ELISA kits to measure PGRN are available from vendors such as Adipogen, R&D, and Biovendor.
Table D below presents the results of a PGRN assay as described above.

| SMILES | EC50 (Mus musculus) [nM] | EC50 [nM] |
| --- | --- | --- |
| Fc1ccc([C@H]2c3ccccc3CCN2C2=N[C@]3(CCCNC3)CO2)cc1 (single isomer, unassigned) [Compound 3053] | 250 | – |
| CN1CCC[C@]2(CN=C(N3CCc4ccccc4[C@@H]3c3cccc(F)c3)O2)C1 (single isomer, unassigned) [Compound 3006] | – | 1000 |
| O=C1N[C@@]2(CCCNC2)N=C1N1CCc2ccccc2[C@@H]1c1ccc(F)cc1 [Compound 3148] | 85.3 | – |
| Fc1ccc([C@@H]2c3ccccc3CCN2C2=NC[C@]3(CN4CCC3CC4)O2)cc1F (stereo in doubt) [Compound 3027] | 2080 | – |
| Fc1cccc([C@H]2c3ccccc3CCN2C2=NC[C@]3(CN4CCC3CC4)O2)c1F (single isomer, unassigned) [Compound 3019] | 300 | – |
| CN1CCC[C@@]2(CN=C(N3CCc4ccccc4[C@H]3c3cccc(F)c3F)O2)C1 (stereo in doubt) [Compound 3044] | 5000 | – |
| CN1CCCC2(COC(N3CCc4ccccc4[C@@H]3c3ccc(F)cc3)=N2)C1 (stereo partly drawn) [Compound 3055] | 1770 | – |
| Fc1ccc([C@H]2c3ccccc3CCN2C2=N[C@@]3(CCCNC3)CO2)cc1 (single isomer, unassigned) [Compound 3054] | 110 | – |
| c1ccc([C@H]2c3ccccc3CCN2C2=NC[C@@]3(CCNC3)O2)cc1 (single isomer, unassigned) [Compound 3165] | 118 | – |
| Fc1ccc([C@H]2c3ccccc3CCN2C2=NO[C@@]3(CN4CCC3(F)CC4)O2)cc1 (single isomer, unassigned) [Compound 3034] | 450 | – |
| Fc1cccc([C@@H]2c3ccccc3CCN2C2=NC[C@@]3(CN4CCC3CC4)O2)c1 (stereo in doubt) [Compound 3022] | 1490 | – |
| CN1CCCC2(CN=C(N3CCc4ccccc4[C@@H]3c3cccc(F)c3F)O2)C1 (mixture of isomers) [Compound 3042] | 1030 | – |
| Fc1ccc([C@H]2c3ccccc3CCN2C2=NC[C@]3(CN4CCC3(F)CC4)O2)cc1 (single isomer, unassigned) [Compound 3033] | 2380 | – |
| O=C1N[C@]2(CCCNC2)N=C1N1CCc2ccccc2[C@@H]1c1ccc(F)cc1 [Compound 3147] | 50.1 | – |
| c1ccc([C@H]2c3ccccc3CCN2C2=NC[C@@]3(CN4CCC3CC4)O2)cc1 (single isomer, unassigned) [Compound 3041] | 1720 | – |
| CN1CCC[C@@]2(CN=C(N3CCc4ccccc4[C@@H]3c3ccc(F)cc3F)O2)C1 (single isomer, unassigned) [Compound 3015] | 880 | – |
| Fc1ccc([C@H]2c3ccccc3CCN2C2=NC[C@]3(CCN(CC(F)(F)F)C3)O2)cc1 [Compound 3171, (R)-2-((S)-1-(4-fluorophenyl)-3,4-dihydroisoquinolin-2(1H)-yl)-7-(2,2,2-trifluoroethyl)-1-oxa-3,7-diazaspiro[4.4]non-2-ene] | 836 | – |
| Fc1ccc([C@H]2c3ccccc3CCN2C2=NC[C@H](C34CCN(CC3)CC4)O2)cc1 [Compound 3047, 2-((S)-1-(4-fluorophenyl)-3,4-dihydroisoquinolin-2(1H)-yl)-5-(quinuclidin-4-yl)-4,5-dihydrooxazole] | > 10000 | – |
| CN1CCC[C@@]2(CN=C(N3CCc4ccccc4[C@@H]3c3cc(F)cc(F)c3)O2)C1 (single isomer, unassigned) [Compound 3011] | 7640 | – |
| CN1CCC[C@]2(CN=C(N3CCc4ccccc4[C@@H]3c3cc(F)c(F)c(F)c3)O2)C1 (single isomer, unassigned) [Compound 3004] | – | > 10000 |
| CN1CC[C@@H](F)[C@]2(CN=C(N3CCc4ccccc4[C@@H]3c3ccc(F)cc3)O2)C1 (single isomer, unassigned) [Compound 3045] | 4490 | – |
| CN1CCC[C@]2(CN=C(N3CCc4ccccc4[C@@H]3c3cccc(F)c3F)O2)C1 (stereo in doubt) [Compound 3043] | 3860 | – |
| Fc1cccc([C@@H]2c3ccccc3CCN2C2=NC[C@]3(CN4CCC3CC4)O2)c1 (stereo in doubt) [Compound 3023] | 2170 | – |
| CN1CCC[C@@]2(CN=C(N3CCc4ccccc4[C@H]3c3ccc(F)c(F)c3)O2)C1 (stereo in doubt) [Compound 3032] | 3430 | – |
| CN1CCC[C@@]2(CN=C(N3CCc4ccccc4[C@@H]3c3cccc(F)c3)O2)C1 (single isomer, unassigned) [Compound 3007] | 370 | – |
| CN1CCC(F)[C@]2(CN=C(N3CCc4ccccc4[C@@H]3c3ccc(F)cc3)O2)C1 (single isomer, unassigned) [Compound 3046] | 3370 | – |
| CN1CCC2(CC1)CN=C(N1CCc3ccccc3[C@@H]1c1ccc(F)cc1)O2 [Compound 3059, (S)-2-(1-(4-fluorophenyl)-3,4-dihydroisoquinolin-2(1H)-yl)-8-methyl-1-oxa-3,8-diazaspiro[4.5]dec-2-ene] | 110 | – |
| Fc1ccc([C@H]2c3ccccc3CCN2C2=NC[C@@]3(CCN(CCC(F)(F)F)C3)O2)cc1 [Compound 3174, (S)-2-((S)-1-(4-fluorophenyl)-3,4-dihydroisoquinolin-2(1H)-yl)-7-(3,3,3-trifluoropropyl)-1-oxa-3,7-diazaspiro[4.4]non-2-ene] | 1380 | – |
| Fc1ccc([C@H]2c3ccccc3CCN2C2=NC[C@@]3(CN4CCC3CC4)O2)cc1F (stereo in doubt) [Compound 3024] | 3960 | – |
| Fc1ccc([C@@H]2c3ccccc3CCN2C2=NC[C@@]3(CN4CCC3CC4)O2)cc1F (stereo in doubt) [Compound 3026] | 310 | – |

More lines, now with the values ahead:

| EC50 (Mus musculus) [nM] | EC50 [nM] | SMILES |
| --- | --- | --- |
| 99.8 | – | Fc1ccc([C@H]2c3ccccc3CCN2C2=N[C@@H](C3(F)CNC3)CO2)cc1 (single isomer, unassigned) [Compound 3156] |
| 84.7 | – | Fc1ccc([C@H]2c3ccccc3CCN2C2=NCC([C@H]3CCNC3)O2)cc1 (single isomer, unassigned) [Compound 3064] |
| 68.7 | – | CN1CC[C@]2(CN=C(N3CCc4ccccc4[C@@H]3c3ccc(F)cc3)O2)C1 [Compound 3168, (R)-2-((S)-1-(4-fluorophenyl)-3,4-dihydroisoquinolin-2(1H)-yl)-7-methyl-1-oxa-3,7-diazaspiro[4.4]non-2-ene] |
| 110 | – | Fc1ccc([C@H]2c3ccccc3CCN2C2=NCC3(CCNCC3)O2)cc1 [Compound 3060, (S)-2-(1-(4-fluorophenyl)-3,4-dihydroisoquinolin-2(1H)-yl)-1-oxa-3,8-diazaspiro[4.5]dec-2-ene] |
| 993 | – | NC[C@H]1C[C@@]2(CN=C(N3CCc4ccccc4[C@@H]3c3ccc(F)cc3)O2)C1 (single isomer, unassigned) [Compound 3160] |
| 429 | – | Fc1ccc([C@H]2c3ccccc3CCN2C2=N[C@H]([C@@H]3CCNC3)CO2)cc1 (single isomer, unassigned) [Compound 3071] |
| 940 | – | CN1CCC[C@H]([C@H]2CN=C(N3CCc4ccccc4[C@@H]3c3ccc(F)cc3)O2)C1 (single isomer, unassigned) [Compound 3153] |
| 176 | – | CN1CC[C@@]2(CN=C(N3CCc4ccccc4[C@@H]3c3ccc(F)cc3)O2)C1 [Compound 3167, (S)-2-((S)-1-(4-fluorophenyl)-3,4-dihydroisoquinolin-2(1H)-yl)-7-methyl-1-oxa-3,7-diazaspiro[4.4]non-2-ene] |
| 538 | – | Fc1ccc([C@H]2c3ccccc3CCN2C2=NC[C@@]3(CNC[C@@H]3F)O2)cc1 (single isomer, unassigned) [Compound 3170] |
| 127 | – | N[C@H]1CC[C@]2(CN=C(N3CCc4ccccc4[C@@H]3c3ccc(F)cc3)O2)C1 (single isomer, unassigned) [Compound 3078] |
| 19 | – | Fc1ccc([C@H]2c3ccccc3CCN2C2=NC[C@@]3(CCNC3)O2)cc1 [Compound 3049] |
| 3100 | – | CN1CCC[C@@H]([C@H]2CN=C(N3CCc4ccccc4[C@@H]3c3ccc(F)cc3)O2)C1 (single isomer, unassigned) [Compound 3151] |
| 55 | – | Fc1ccc([C@H]2c3ccccc3CCN2C2=NC[C@@H]([C@@H]3CCNC3)O2)cc1 (single isomer, unassigned) [Compound 3066] |
| > 10000 | – | Fc1ccc([C@H]2c3ccccc3CCN2C2=NC[C@H]([C@H]3CCCNC3)O2)cc1 (single isomer, unassigned) [Compound 3076] |
| 620 | – | Fc1ccc([C@H]2c3ccccc3CCN2C2=NCC3(CNCCC3F)O2)cc1 (stereo partly drawn) [Compound 3035, 10-fluoro-2-((S)-1-(4-fluorophenyl)-3,4-dihydroisoquinolin-2(1H)-yl)-1-oxa-3,7-diazaspiro[4.5]dec-2-ene] |
| 757 | – | N[C@H]1CCC[C@]12CN=C(N1CCc3ccccc3[C@@H]1c1ccc(F)cc1)O2 (single isomer, unassigned) [Compound 3086] |
| 249 | – | O[C@H]1CNC[C@@]12CN=C(N1CCc3ccccc3[C@@H]1c1ccc(F)cc1)O2 [Compound 3178, (5R,9S)-2-((S)-1-(4-fluorophenyl)-3,4-dihydroisoquinolin-2(1H)-yl)-1-oxa-3,7-diazaspiro[4.4]non-2-en-9-ol] |
| 330 | – | Fc1ccc([C@H]2c3ccccc3CCN2C2=N[C@H]([C@H]3CCNC3)CO2)cc1 (single isomer, unassigned) [Compound 3072] |
| 77.7 | – | Fc1ccc([C@H]2c3ccccc3CCN2C2=N[C@H](C3(F)CNC3)CO2)cc1 (single isomer, unassigned) [Compound 3157] |
| 109 | – | Fc1ccc([C@H]2c3ccccc3CCN2C2=NCC(C3CNC3)O2)cc1 (single isomer, unassigned) [Compound 3069] |
| 475 | – | Fc1ccc([C@H]2c3ccccc3CCN2C2=NC[C@@H]([C@H]3CCCNC3)O2)cc1 (single isomer, unassigned) [Compound 3077] |
